In US12377069B2, “Compounds, compositions, methods of using, and methods for preparing compounds” (UNIVERSITY OF LOUISVILLE RESEARCH FOUNDATION, INC., priority 2018, dated 2025):
Values belong to the compound of their own block, whether it stands above or below them.

What was measured:
[1] = test system: Cyp1A1; test: Cyp1A1 enzyme activity in colon and liver microsomes of treated mice; type: in vivo, mouse; conditions: 1 week; for Cyp1A1 activity in liver compared to oral UroA/UAS03: i.p. daily
Protocol: Measurements of Cyp1A1 enzyme activity (Ex vivo): Mice were treated with Vehicle or UroA or UAS03, BNF or FICZ daily for one week at indicated concentration either through oral or i.p. route. After one week, mice were euthanized and the colon and liver tissues were dissected. Microsomes from these tissues were prepared using the following procedure (SINGH et al., (2013) “Evaluation of memory enhancing clinically available standardized extract of Bacopa monniera on P-glycoprotein and cytochrome P450 3A in Sprague-Dawley rats” PloS one, Vol. 8, Article e72517). For hepatic microsomes, liver was first perfused with 0.9% sodium chloride solution and excised out. Adhering blood and saline was removed by blotting on tissue paper and tissue was homogenized in tissue homogenization buffer (50 mM Tris-HCl, pH 7.4 with 250 mM sucrose). Homogenate was centrifuged at 10,000×g for 30 minutes at 4° C. supernatant obtained was further centrifuged at 105,000×g for 60 minutes at 4° C. The pellet was washed with homogenization buffer and centrifuged again at 105,000×g for 60 minutes at 4° C. The pellet was suspended in homogenization buffer and used for protein and CYP assay. For intestinal microsome preparation, intestine was removed and washed with 0.9% sodium chloride. The intestine was longitudinally cut open to expose mucosal layer and mucosa was scrapped with help of glass slide. The scraped tissue was collected in homogenization buffer (50 mM Tris-HCl buffer containing glycerol (20% v/v), protease inhibitor (1%) and heparin (3 U/ml)). This suspended mucosa was homogenized and centrifuged at 10,000×g for 20 minutes at 4° C. Supernatant obtained was further centrifuged at 105,000×g for 60 minutes at 4° C. The pellet was washed with buffer and centrifuged again at 105,000×g for 60 minutes at 4° C. The pellet was suspended homogenization buffer and used for protein and CYP enzymes assays.
Ethoxyresorufin-O-deethylase (EROD) assay: The microsomal proteins (0.5 mg) were mixed with 200 μL Tris buffer (0.1 M, pH 7.4) containing ethoxyresorufin (0.01 mM). To start reaction, NADPH (0.1 mM) was added and incubated at 37° C. for 10 min. After 10 min, reaction was terminated by adding equal volume of acetonitrile and reaction mixture was centrifuged at 13000×g for 10 min at 4° C. Supernatant was used to determine resorufin by measuring fluorescence (Ex. 530 nm, Em. 580 nm). Pure resorufin (Sigma Aldrich) was used to generate standard curve.
P450-Glo Cyp1A1 luminiscence assay: The above microsomes (20 μg) were used for P450-Glo Cyp1A1 luminiscence assays as per manufacturer's instructions.

[2] = test system: Cyp1A1; test: Cyp1A1 expression and enzyme activity in vitro (P450-Glo, EROD); type: cell-based, human; conditions: HT29, 24 h; P450-Glo and EROD
Protocol: Measurment of Cyp1A1 enzyme activities in vitro. EROD assay: HT-29 cells (15,000 cells/well) treated with vehicle, UroA and UAS03 (24 hrs), were rinsed with HBSS buffer, and then fresh HBSS buffer was added along with 5 μM of 7-ethoxyresorufin. Cells were further incubated at 37° C. for 1 h. After the incubation time, fluorescence (Exc. 530 nm, Em. 580 nm) was measured and product (resorufin) formed was calculated from calibration standard and normalized with protein concentration.
P450-Glo Cyp1A1 luminiscence assay: HT29 cells (25,000 cells/well) were plated in 48 well plate. Cell were then treated with UroA (0.1, 1, 10, 25 and 50 μM) or UAS03 (0.1, 1, 10, 25 and 50 μM) or FICZ (0.1, 1, 10, 25 and 50 nM) for 24 hrs. After treatment, cells were washed to remove any residual drugs, and fresh medium containing Cyp1A1 substrate (as per protocol provided with kit Cat. #V8751; Promega) for 3 hr. After incubation, 25 μl of culture medium was removed from each well and transferred to a 96-well white opaque plate and 25 μl of luciferin detection reagent was added to initiate the luminescence reaction and plate was incubated at room temperature for 20 min. After incubation, luminescence was recorded in luminometer. The data reported as fold change over vehicle treatment.

[3] = test system: mouse bone marrow derived macrophages (BMDMs); test: LPS-induced IL-6 and TNF-α in BMDM; type: cell-based; conditions: LPS 50 ng/mL, six hours; compared UroA
Protocol: Measurements of IL-6 and TNF-α in BMDM: BMDM were plated in 96 (10,000 cells/well) and 12 wells (0.1×10^6 cells/well) plate for ELISA and RNA isolation. To evaluate the anti-inflammatory properties, BMDMs were stimulated with E. coli-derived lipopolysaccharides (LPS; 055:B5; Sigma) at 50 ng/mL concentration for six hours alone or in combination with UroA or UAS03 at indicated concentrations (0.01, 0.1, 1, 10, 25, 50 μM) in quadruplicates. For cytokine production via ELISA, the supernatant was collected and centrifuged at 10,000×g for 10 min at 4° C. to pellet down any cell and cytokines were quantified using IL-6 and TNF-α specific ELISA kit (Biolegend) following manufacturer's instruction.
Screening for anti-inflammatory activities: Mouse bone marrow derived macrophages (BMDM) were plated in 96 wells plate for ELISA. To evaluate the anti-inflammatory properties, BMDMs were stimulated with E. coli-derived lipopolysaccharides (LPS; 055:B5; Sigma) at 50 ng/mL concentration for six hours alone or in combination with compounds at indicated concentrations in quadruplicates. For cytokine production via ELISA, the supernatant was collected and centrifuged at 12,000 rpm for 10 min at 4° C. to pellet down any cell and cytokines were quantified using IL-6 and TNF-α specific ELISA kit (Biolegend) following manufacturer's instruction. LPS induced IL-6 or TNF-α considered as 100%.

[4] = test system: AhR; test: AhR reporter (XRE-luciferase) assay; type: cell-based, human; conditions: 6 h, over vehicle
Protocol: AhR Reporter assay: AhR-reported assay was performed using AhR Reporter Assay system (Indio Biosciences). The AhR Reporter cells (expressing luciferase under AhR promoter) as well as positive control MeBio (AhR ligand) compound were provided in the kit. The cells were treated with Vehicle or UroA or UAS03 or ellagic acid or MeBio for 6 hr and luminoscence was measured according to manufacture's instructions.

[5] = test system: colon cancer cell line (SW480); test: Proliferation assay with 5FU; conditions: Homo sapiens
[6] = i.p., UroA/UAS03 5 mg/kg/day, FICZ 1 μg/mouse/day
[7] = SW480, read-out: cell viability

Cyp1A1 activity in liver compared to oral UroA/UAS03 [1]: more Cyp1A1 activity in liver
Compound: O=c1cc(-c2ccccc2)oc2ccc3ccccc3c12 [BNF, beta-naphthoflavone, reference compound]

Cyp1A1 activity in liver compared to oral UroA/UAS03 [1]: more Cyp1A1 activity in liver
Cyp1A1 activity increase in colons [1, 6]: ~5 fold
Cyp1A1 enzyme activity induction in liver [1, 6]: ~30 fold
Compound: O=Cc1c2c(cc3c1=Nc1ccccc1-3)=Nc1ccccc1-2 [FICZ, 6-Formylindolo[3,2-b]carbazole, reference compound]
Cyp1A1 enzyme activity in colon epithelial cells [2]: increased Cyp1A1 activity even at nano molar concentrations

Compound: O=C1/C(=N/C23CC4CC(CC(C4)C2)C3)c2cc(O)ccc2-c2ccc(O)cc21 [PKL 17]
anti-inflammatory activities (LPS-induced IL-6 and TNF-α), analogue screening [3]: effective anti-inflammatory compounds

Compound: COc1ccc2c(c1)C(=O)C(=O)c1cc(OC)ccc1-2 [PKL 3]
anti-inflammatory activities (LPS-induced IL-6 and TNF-α), analogue screening [3]: effective anti-inflammatory compounds

induction of luciferase activity (AhR activation) [4]: ~15 fold
Compound: MeBio

Compound: O=c1[nH]cc(F)c(=O)[nH]1 [5FU, 5-Fluoro-1H,3H-pyrimidine-2,4-dione, reference compound]
viability at 3.12 µM [5, 7]: 90%
viability at 25 µM [5, 7]: 63%
inhibition at 100 µM ([5]; SW480, read-out: maximum inhibition of cancer cell growth): ≤ 60%

Compound: O=C1C(=O)c2cc(O)ccc2-c2ccc(O)cc21 [PKL4]
anti-inflammatory activities (LPS-induced IL-6 and TNF-α), analogue screening [3]: effective anti-inflammatory compounds

Compound: Clc1cc2c(cc1Cl)Oc1cc(Cl)c(Cl)cc1O2 [TCDD, 2,3,7,8-tetrachlorodibenzo-p-dioxin, reference compound]
Cyp1A1 enzyme activity in colon epithelial cells [2]: increased Cyp1A1 activity even at nano molar concentrations
